Molecules are shown by their SMILES. Where only a bound is given, the exact number is not on record here.

Drawing on ChEMBL document CHEMBL5729124, “Autotaxin inhibitor compounds” (2022), this text covers IC50 for three compounds.

The test has as its target Autotaxin (Homo sapiens, UniProt Q13822). In words: Human Autotaxin Assay: ATX activity is assayed in concentrated conditioned media from Hep3B human hepatocellular carcinoma cells by measuring the amount of choline released from the substrate, lysophosphatidylcholine (LPC) as it is cleaved to LPA. Conditioned media is collected from confluent Hep3B cells and concentrated 20-fold using Centriprep-30 filter devices (Millipore).
On to `CCCn1cc(-n2c(Br)c(Sc3cccc(C(=O)O)c3)c3ccc(Cl)cc32)cn1`, for which the IC50 was below 500 nM.
The value for `C#CCCCCn1cc(-n2c(C3CC3)c(Sc3cccc(C(=O)O)c3F)c3ccc(Cl)c(F)c32)cn1` was below 500 nM; that for `CC(C)(CO)Cn1cc(-n2c(C3CC3)c(Sc3cccc(C(=O)O)c3F)c3ccc(Cl)c(F)c32)cn1` was below 500 nM.

One may read the IC50 as the concentration at which inhibition is half-maximal.
